Measurements published in patent US9295732B2, “Conjugated TLR7 and/or TLR8 and TLR2 polycationic agonists” (CAYLA, priority 2013, dated 2016).
Several values for one entry are separate records, joined by “and”; a condition that tells them apart may be missing. Equal entries are not always repeated.

Tests used:
[1] = test system: endogenous TLR2 and TLR7 in RAW-Blue™ Cells; assay: RAW-Blue Cells NF-κB/AP-1 SEAP reporter assay; format: cell-based, mouse; conditions: 24 hours, OD at 655 nm, FIG. 4
Summary of the method: (§1)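 HEK293 cells stably expressing the given TLR, or RAW 264.7-derived cells (50,000 or 100,000 cells/well respectively), carry an NF-κB/AP-1-inducible SEAP reporter. Conjugated TLR7-TLR2 agonists at final 10 μg/mL to 10 pg/ml, 24 h at 37° C. SEAP read colorimetrically as OD at 655 nm in detection medium.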

[2] = test system: B16-F1 cells; assay: Cell transfection with SEAP plasmid, B16-F1; format: cell-based, mouse; conditions: in complex with pVitro14 LGFP SEAP plasmid, 48 hours, SEAP expression; FIG. 5B
Experimental: The TLR7-TLR2 molecules were tested for their ability as polyamine molecules to transport plasmid DNA (pDNA) into cells. The pVitro14 LGFP SEAP plasmid (InvivoGen) was complexed to TLR7-TLR2 polyamine molecules and to the control cationic lipid transfection agent, LyoVec™ (InvivoGen). The human HEK293 (ATCC, CRL-1573) and mouse B16-F1 melanoma (ATCC, CRL-6323) cell lines were seeded at a density of 50 000 cells/well and 20 000 cells/well respectively, in the absence or presence of different volumes of the plasmid encoding for the SEAP protein in complex with TLR7-TLR2 polyamine molecules for 48 hours at 37° C. and 10% CO2. Transfection efficiency was assessed by measuring SEAP reporter gene expression: 20 μl of supernatant was sampled and mixed with 180 μl of QUANTI-Blue™ Detection (InvivoGen). In the presence of alkaline phosphatase SEAP, the color of QUANTI-Blue™ changes from pink to purple/blue. The intensity of the blue hue reflects the activity of SEAP. The levels of SEAP secretion were determined quantitatively by reading the OD at 620-655 nm using a spectrophotometer, iMark™ Microplate Reader (BIO-RAD).

[3] = Nanoparticle (lipoplex) size by dynamic light scattering; conditions: 25° C., triplicate; for Mean Diameter: complexes with pDNA 3:24 (w:w), dynamic light scattering; for PDI: polydispersity index of complexes with pDNA 3:24 (w:w);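 for all read-outs here: lipoplexes of TLR7-TLR2 polyamine conjugates with plasmid DNA, formed over 30 min at room temperature in serum-free medium or 5% glucose, diameter in nm, PDI dimensionless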
[4] = target: T1, murine TLR7 (Mus musculus, UniProt P58681); assay: HEK-Blue mTLR7 NF-κB/AP-1 SEAP reporter assay; format: cell-based; conditions: HEK-Blue mTLR7 cells, 10 μg/mL to 10 pg/ml, 24 hours, OD at 655 nm, FIG. 2
T1 construct: host or cells: HEK293 (HEK-Blue™ mTLR7)
T1 sequence (P58681 27-1050): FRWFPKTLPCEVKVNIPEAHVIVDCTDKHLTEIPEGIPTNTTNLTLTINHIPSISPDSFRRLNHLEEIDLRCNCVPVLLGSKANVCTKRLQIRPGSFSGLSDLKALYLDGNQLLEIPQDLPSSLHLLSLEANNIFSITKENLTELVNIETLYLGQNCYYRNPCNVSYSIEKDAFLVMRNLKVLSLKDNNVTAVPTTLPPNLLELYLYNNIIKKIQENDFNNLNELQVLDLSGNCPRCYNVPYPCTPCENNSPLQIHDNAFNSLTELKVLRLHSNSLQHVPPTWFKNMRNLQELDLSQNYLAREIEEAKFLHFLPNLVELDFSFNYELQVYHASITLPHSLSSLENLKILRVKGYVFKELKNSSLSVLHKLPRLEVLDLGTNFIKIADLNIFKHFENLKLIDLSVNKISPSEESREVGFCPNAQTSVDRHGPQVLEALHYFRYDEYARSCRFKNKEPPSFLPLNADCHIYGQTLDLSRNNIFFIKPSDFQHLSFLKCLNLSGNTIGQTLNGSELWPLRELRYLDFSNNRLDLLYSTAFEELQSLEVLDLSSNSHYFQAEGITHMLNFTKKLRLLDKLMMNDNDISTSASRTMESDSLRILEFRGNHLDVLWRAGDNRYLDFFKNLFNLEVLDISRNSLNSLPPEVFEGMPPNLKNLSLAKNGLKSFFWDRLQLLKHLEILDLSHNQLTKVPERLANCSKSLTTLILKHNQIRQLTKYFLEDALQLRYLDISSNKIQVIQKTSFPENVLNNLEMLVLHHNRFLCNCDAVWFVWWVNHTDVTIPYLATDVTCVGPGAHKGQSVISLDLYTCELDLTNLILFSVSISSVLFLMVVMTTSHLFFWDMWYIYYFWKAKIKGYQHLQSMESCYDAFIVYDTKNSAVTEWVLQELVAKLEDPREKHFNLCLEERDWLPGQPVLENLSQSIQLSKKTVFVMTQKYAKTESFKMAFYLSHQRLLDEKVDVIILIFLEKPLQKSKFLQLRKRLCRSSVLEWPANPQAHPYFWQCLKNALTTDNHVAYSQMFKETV
Summary of the method: as §1

Row | Molecule | Mean Diameter [3] | PDI [3] | ability to activate mTLR7 [4] | ability to activate endogenous TLR2 and TLR7 in RAW-Blue Cells [1] | ability to transfect B16-F1 cells [2]
1 | CCCCCCCCCCCCCCCC(=O)OCC(CSC[C@H](N)C(=O)N[C@@H](CCC(=O)NCCCNCCCCNCCCN)C(=O)Nc1ccc(Cn2c(O)nc3c(N)nc(NCCCC)nc32)cc1)OC(=O)CCCCCCCCCCCCCCC (stereo partly drawn) [CL527, (6R,9S)-6,25-diamino-9-(4-((6-amino-2-(butylamino)-8-hydroxy-9H-purin-9-yl)methyl)phenylcarbamoyl)-7,12-dioxo-4-thia-8,13,17,22-tetraazapentacosane-1,2-diyl dipalmitate] | 175.1 nm and 156.9 nm and 168.3 nm | 0.253 and 0.239 and 0.258 | activate mTLR7 | activate endogenous TLR2 and TLR7 | transfect B16-F1 cells
2 | (6S,9S,12S,15S,18S,21R)-6,25-diamino-21-(4-((6-amino-2-(butylamino)-8-hydroxy-9H-purin-9-yl)methyl)phenylcarbamoyl)-12,15,18-tris(4-aminobutyl)-9-(hydroxyl methyl)-7,10,13,16,19-pentaoxo-4-thia-8,11,14,17,20-pentaazapentacosane-1,2-diyl dipalmitate [CL413] | – | – | activate mTLR7 | activate endogenous TLR2 and TLR7 | lack the ability to transfect cells
3 | CCCCCCCCCCCCCCCC(=O)N[C@@H](CSCC(COC(=O)CCCCCCCCCCCCCCC)OC(=O)CCCCCCCCCCCCCCC)C(=O)N[C@@H](CO)C(=O)N[C@@H](CCCCN)C(=O)N[C@@H](CCCCN)C(=O)N[C@@H](CCCCN)C(=O)N[C@@H](CCCCN)C(=O)Nc1ccc(Cn2c(O)nc3c(N)nc(NCCCC)nc32)cc1 (stereo partly drawn) [CL534, ((6R,9S,12S,15S,18S,21S)-25-amino-21-(4-((6-amino-2-(butylamino)-8-hydroxy-9H-purin-9-yl)methyl)phenylcarbamoyl)-12,15,18-tris(4-aminobutyl)-9-(hydroxylmethyl)-7,10,13,16,19-pentaoxo-6-palmitamido-4-thia-8,11,14,17,20-pentaazapentacosane-1,2-diyl dipalmitate] | – | – | activate mTLR7 | activate endogenous TLR2 and TLR7 | lack the ability to transfect cells

Second part, led by results:

Row | Mean Diameter [3] | PDI [3] | ability to activate mTLR7 [4] | Molecule | ability to activate endogenous TLR2 and TLR7 in RAW-Blue Cells [1] | ability to transfect B16-F1 cells [2]
4 | 170.0 nm and 190.0 nm and 180.2 nm | 0.226 and 0.230 and 0.237 | activate mTLR7 | CCCCCCCCCCCCCCCC(=O)OCC(CSC[C@H](N)C(=O)NCCCNCCCCNCCCNC(=O)CNC(=O)c1ccc(Cn2c(O)nc3c(N)nc(NCCCC)nc32)cc1)OC(=O)CCCCCCCCCCCCCCC (stereo partly drawn) [CL553, (20R)-20-amino-1-(4-((6-amino-2-(butylamino)-8-hydroxy-9H-purin-9-yl)methyl)phenyl)-1,4,19-trioxo-22-thia-2,5,9,14,18-pentaazapentacosane-24,25-diyl dipalmitate] | activate endogenous TLR2 and TLR7 | transfect B16-F1 cells
5 | 249.1 nm and 309.6 nm and 258.3 nm | 0.303 and 0.354 and 0.372 | activate mTLR7 | CCCCCCCCCCCCCCCC(=O)OCC(CSC[C@H](N)C(=O)N[C@@H](COC(=O)c1ccc(Cn2c(O)nc3c(N)nc(NCCCC)nc32)cc1)C(=O)NCCCNCCCCNCCCN)OC(=O)CCCCCCCCCCCCCCC (stereo partly drawn) [CL514, (6R,9S)-6,23-diamino-9-((4-((6-amino-2-(butylamino)-8-hydroxy-9H-purin-9-yl)methyl)benzoyloxy)methyl)-7,10-dioxo-4-thia-8,11,15,20-tetraazatricosane-1,2-diyl dipalmitate] | activate endogenous TLR2 and TLR7 | transfect B16-F1 cells
